A word on the Kd: it is the free concentration of one partner at which half of the binding sites on the other are occupied at equilibrium, for simple one-to-one binding. Read a low Kd as a tighter complex.

Assay [1] deals with T1, fascin (Homo sapiens, UniProt Q16658). Briefly: Isothermal titration calorimetry. In kind it is binding. The note with it: 150 µM compound in syringe, 15 µM fascin in cell, Fig. 3B. On the technique in general: Isothermal titration calorimetry measures the heat released or taken up as one component is titrated into another.
For assay [2], the target named is T1, fascin. The settings on record: for Ligand efficiency: from SPR Kd.
The target in assay [3] is T1, fascin. Briefly: biochemical. The settings on record: SPR Kd.
Assay [4] has as its target T1, fascin. In kind it is biochemical.

In the case of `O=C(Nc1ccncc1)c1cn(Cc2ccc(Cl)c(Cl)c2)c(=O)c2cnn(C3CCNCC3)c12` [Compound 28, 5-(3,4-dichlorobenzyl)-4-oxo-1-(piperidin-4-yl)-N-(pyridin-4-yl)-4,5-dihydro-1H-pyrazolo[4,3-c]pyridine-7-carboxamide], in assay [1], the “ITC stoichiometry N” value is recorded as 1.05 ± 0.01. This compound yielded a Ligand efficiency in assay [2] of 0.29. Further, binding in assay [3] was put at a Kd of 85 ± 0.02 nM.

Turning to `CC(=O)N(C)c1ccc(Cl)cc1Cl` [Compound 1, N-(2,4-dichlorophenyl)-N-methylacetamide], in assay [2], the Ligand efficiency is given as 0.43. For the same compound, the “inhibition of fascin in the bundling assay (in words)” value (shortened to “inhibition of fascin”) in assay [4] was “Unlike compound 1, both 2 and 3 inhibit fascin”.

As to `Cn1cc(NC(=O)c2cn(Cc3ccccc3)c(=O)c3ccccc23)cn1` [Compound 3, 2-benzyl-N-(1-methylpyrazol-4-yl)-1-oxo-isoquinoline-4-carboxamide], in assay [4], the “inhibition of fascin” value is “inhibit fascin”.

As to `O=c1c2cnn(C3CCS(=O)(=O)C3)c2ncn1Cc1ccc(Cl)c(Cl)c1` (stereo not drawn) [Compound 2, 5-(3,4-dichlorobenzyl)-1-(1,1-dioxidotetrahydrothiophen-3-yl)-1,5-dihydro-4H-pyrazolo[3,4-d]pyrimidin-4-one, reference compound], the “improvement of fascin affinity over truncated compound 25” value in assay [2] is reported as 23 fold. The “inhibition of fascin” value in assay [4] is “inhibit fascin”.

For `Cn1cc(NC(=O)c2cn(Cc3ccc(Cl)cc3)c(=O)c3ccccc23)cn1` [Compound 5, 2-(4-chlorobenzyl)-N-(1-methyl-1H-pyrazol-4-yl)-1-oxo-1,2-dihydroisoquinoline-4-carboxamide], in assay [2] (SPR Kd ratio vs compound 3), the “increase in binding affinity compared to 3” value is “≈ 14 fold”.

The values above are taken from paper PMC6419574 (Bioorganic & Medicinal Chemistry Letters, 2019).
